# According to patent publication US20240027453A1, “METHOD FOR DETECTION AND QUANTITATIVE MONITORING OF INFECTIONS WITH HERPESVIRUSES” (The Trustees of Princeton University, priority 2020, published 2024):
# Read-outs that look alike come from different tables or passages of the source.
# Tested on: HCMV
# Type: cell-based
# Protocol: In example herpesvirus PRM assay methods shown herein, cell pellets were lysed in 2% SDS, 100 mM NaCl, 0.5 mM EDTA, 50 mM Tris, pH 8.2, and 50 μg of protein was reduced and alkylated with 25 mM TCEP and 50 mM CAM respectively for 20 min at 70° C. Proteins were then precipitated via methanol chloroform precipitation (Wessel & Flugg, Anal Biochem. 138(1):141-143, 1984), resuspended in 50 mM HEPES, pH 8.2 and digested overnight with trypsin (50:1 protein:enzyme w/w ratio). Digested peptides were desalted by SDB-RPS StageTip as previously described (Lum et al., Cell Syst., 7(6):[…], 2018; Greco et al., Methods Mol Biol 1410:39-63, 2016; Federspiel & Cristea, Methods Mol Biol., 1977:115-143, 2019).
# Peptides (1.0 μg on column) were analyzed by LC-MS/MS using a Dionex Ultimate 3000 UHPLC coupled online to an EASYSpray ion source and a Q Exactive HF. Peptides were separated on an EASYSpray C18 column (75 μm×25 cm) heated to 50° C. using a linear gradient of 5% B to 32% B over 60 min at a flow rate of 250 nL/min and were ionized at 1.7 kv. Mobile phase A consisted of 0.1% FA in H2O and mobile phase B consisted of 0.1% FA, 2.9% H2O in ACN.
# The PRM method was controlled by a peptide inclusion list with retention time windows of 6 min for selected precursor ions.
# The PRM assay was developed and analyzed using the open-source software Skyline (Maclean et al., Bioinformatics 26(7):966-968, 2010). Summed area under the curve of 3-4 transitions per peptide was used for quantitation. Targeted peptides were normalized to host protein loading control peptides. Peptide values for each sample were scaled to the average of each peptide across all runs. The average of multiple peptides was used as the inferred value for the protein measurement when more than one peptide was quantified (Federspiel et al., PLoS Biol. 17(9):e3000437. Doi: 10.1371/journal.pbio.3000437). PRM quantitation data were graphed using the Python Seaborn and Matplotlib libraries.
# MRC5 primary human fibroblasts (HFs) (ATCC CCL-171) were used as the model system for HSV-1 and HCMV infections and were cultured in complete growth medium (DMEM supplemented with 10% fetal bovine serum and 1% penicillin-streptomycin antibiotics) at 37° C. and 5% CO2. iSLK.219 cells harboring latent KSHV (a gift from Dr. Britt Glaunsinger, University of California, Berkeley) were grown in complete growth medium supplemented with 500 μg/ml hygromycin (ThermoFisher Scientific, 10687010) at 37° C. and 5% CO2. All cells were used for experiments within a maximum of 10 passages.
# Wild type HSV-1 strain 17+ (a gift from Beate Sodeik, Hannover Medical School, Hannover, Germany) was propagated as previously described (Diner et al., 2015). Briefly, PO stocks were generated by electroporating pBAC-HSV-1 into U-2 OS cells. […] In a similar manner, wild type HCMV strain AD169 was produced from BAC electroporation into HFs and working stocks were propagated by infecting HFs at a low level. In both cases, cell-associated virus was released by sonication, combined with supernatant virus, then concentrated by ultracentrifugation (20,000 rpm, 2 hours, 4° C. with SW28 swinging bucket rotor [Beckman Coulter]) over a 10% ficoll (HSV-1) or 20% sorbitol (HCMV) cushion. Virus stock titers were determined by plaque assay for HSV-1 or tissue culture infectious dose (TCID50) for HCMV and infections were performed at a multiplicity of infection (MOI) of 3.
# 12 hours prior to virus infection or reactivation, cells were treated with either the small molecule drug or DMSO/PBS control at an equivalent volume. […] For infection cycles lasting longer than 24 hours, small molecule drugs were re-added to the cell culture medium every 24 hours. Upon collection, cells were rinsed with PBS, scraped into a microcentrifuge tube, pelleted by centrifugation, and rinsed again with PBS.
compound,measurement,setting,value
Nc1c(S(=O)(=O)c2ccccc2)c2nc3ccccc3nc2n1-c1ccc(F)cc1 [CAY10602],HCMV UL122 (IE2) and UL123 (IE1) levels,,decreases
same,levels of HCMV viral immediate early proteins,,reduced
same,HCMV UL123 levels,"24 HPI, […] CAY10602, 50 μM trans-Resveratrol",unchanged
same,HCMV UL26 levels,"48 HPI, […] CAY10602, 50 μM trans-Resveratrol",decreased
same,HCMV viral protein production,by 48 HPI,global reduction
same,HCMV UL99 levels,"by 72 HPI, […] CAY10602, 50 μM trans-Resveratrol",robustly decreased
same,global decrease in HCMV viral protein levels,"by 120 HPI, […] CAY10602, 50 μM trans-Resveratrol",~70%
same,CVC2 (P16726) protein level,"timepoint 24, DE",0.01787
same,DBP (P17147) protein level,"timepoint 24, DE",0.1756
same,HELI (P16736) protein level,"timepoint 24, DE",0.3389
same,IR01 (P09710) protein level,"timepoint 24, DE",0.274
same,NEC2 (P16791) protein level,"timepoint 24, DE",0.03969
same,RIR1 (P16782) protein level,"timepoint 24, DE",0.09397
same,TRM1 (P16724) protein level,"timepoint 24, DE",0.04087
same,UL4 (P17146) protein level,"timepoint 24, DE",0.03736
same,UL26 (P16762) protein level,"timepoint 24, DE",0.07273
same,UL32 (P08318) protein level,"timepoint 24, DE",0.01952
same,UL34 (P16812) protein level,"timepoint 24, DE",0.1137
same,UL38 (P16779) protein level,"timepoint 24, DE",0.9755
same,UL44 (P16790) protein level,"timepoint 24, DE",0.06474
same,UL48 (P16785) protein level,"timepoint 24, DE",0.01175
same,UL54 (P08546) protein level,"timepoint 24, DE",0.6089
same,UL71 (P16823) protein level,"timepoint 24, DE",0.439
same,UL78 (P16751) protein level,"timepoint 24, DE",0.9755
same,UL84 (P16727) protein level,"timepoint 24, DE",0.1012
same,UL95 (P16801) protein level,"timepoint 24, DE",0.07625
same,UL96 (P16787) protein level,"timepoint 24, DE",0.387
same,UL97 (P16788) protein level,"timepoint 24, DE",0.2812
same,UL98 (P16789) protein level,"timepoint 24, DE",0.3005
same,UL102 (P16827) protein level,"timepoint 24, DE",0.5343
same,UL104 (P16735) protein level,"timepoint 24, DE",0.03903
same,UL112/UL113 (P17151) protein level,"timepoint 24, DE",0.5236
same,UL114 (P16769) protein level,"timepoint 24, DE",0.6704
same,UL119/UL118 (P16739) protein level,"timepoint 24, DE",0.2198
same,UL128 (P16837) protein level,"timepoint 24, DE",0.1113
same,US8 (P09730) protein level,"timepoint 24, DE",1.057
same,US9 (P09729) protein level,"timepoint 24, DE",0.627
same,US12 (P09721) protein level,"timepoint 24, DE",1.672
same,US13 (P09720) protein level,"timepoint 24, DE",0.6838
same,US14 (P09719) protein level,"timepoint 24, DE",0.3957
same,US18 (P69334) protein level,"timepoint 24, DE",0.5335
same,US22 (P09722) protein level,"timepoint 24, DE",0.3966
same,US23 (P09701) protein level,"timepoint 24, DE",0.6776
same,US24 (P09700) protein level,"timepoint 24, DE",0.62
same,US34 (P09709) protein level,"timepoint 24, DE",0.7981
same,gB (P06473) protein level,"timepoint 24, DE",0.1137
same,IRS1 (P09715) protein level,"timepoint 24, IE",0.3939
same,TRS1 (P09695) protein level,"timepoint 24, IE",0.2642
same,UL13 (P16755) protein level,"timepoint 24, IE",2.055
same,UL36 (P16767) protein level,"timepoint 24, IE",1.41
same,UL37 (P16778) protein level,"timepoint 24, IE",1.032
same,UL122 (P19893) protein level,"timepoint 24, IE",0.05997
same,UL123 (P13202) protein level,"timepoint 24, IE",0.9831
same,CVC1 (P16799) protein level,"timepoint 24, L",0.06119
same,IR11 (P16809) protein level,"timepoint 24, L",0.1044
same,MCP (P16729) protein level,"timepoint 24, L",0.004968
same,SCP (Q7M6N6) protein level,"timepoint 24, L",0.004248
same,TRM2 (P16792) protein level,"timepoint 24, L",0.01981
same,UL22A (P16845) protein level,"timepoint 24, L",0.04382
same,UL25 (P16761) protein level,"timepoint 24, L",0.03889
same,UL29 (P16764) protein level,"timepoint 24, L",0.8336
same,UL31 (P16848) protein level,"timepoint 24, L",0.3279
same,UL43 (P16781) protein level,"timepoint 24, L",0.06088
same,UL52 (P16793) protein level,"timepoint 24, L",0.01567
same,UL80 (P16753) protein level,"timepoint 24, L",0.0363
same,UL82 (P06726) protein level,"timepoint 24, L",0.1843
same,UL88 (P16731) protein level,"timepoint 24, L",0.03831
same,UL94 (P16800) protein level,"timepoint 24, L",0.08626
same,UL99 (P13200) protein level,"timepoint 24, L",0.0296
same,UL103 (P16734) protein level,"timepoint 24, L",0.3578
same,UL117 (P16770) protein level,"timepoint 24, L",0.4362
same,gH (P12824) protein level,"timepoint 24, L",0.04925
same,gL (P16832) protein level,"timepoint 24, L",0.03727
same,gM (P16733) protein level,"timepoint 24, L",0.03485
same,gN (P16795) protein level,"timepoint 24, L",0.1564
same,IR12 (P16810) protein level,"timepoint 24, LL",0.06811
same,TRX1 (P16783) protein level,"timepoint 24, LL",0.0077
same,TRX2 (P16728) protein level,"timepoint 24, LL",0.005245
same,UL24 (P16760) protein level,"timepoint 24, LL",0.1137
same,UL40 (P16780) protein level,"timepoint 24, LL",0.6403
same,UL47 (P16784) protein level,"timepoint 24, LL",0.008892
same,UL69 (P16749) protein level,"timepoint 24, LL",0.2203
same,UL70 (P17149) protein level,"timepoint 24, LL",0.1882
same,UL83 (P06725) protein level,"timepoint 24, LL",0.04505
same,UL132 (P69338) protein level,"timepoint 24, LL",0.1044
same,US15 (P09718) protein level,"timepoint 24, LL",1.318
same,CVC2 (P16726) protein level,"timepoint 48, DE",0.02711
same,DBP (P17147) protein level,"timepoint 48, DE",0.3215
same,HELI (P16736) protein level,"timepoint 48, DE",0.633
same,IR01 (P09710) protein level,"timepoint 48, DE",0.3157
same,NEC2 (P16791) protein level,"timepoint 48, DE",0.07071
same,RIR1 (P16782) protein level,"timepoint 48, DE",0.1157
same,TRM1 (P16724) protein level,"timepoint 48, DE",0.1031
same,UL4 (P17146) protein level,"timepoint 48, DE",0.07128
same,UL26 (P16762) protein level,"timepoint 48, DE",0.08021
same,UL32 (P08318) protein level,"timepoint 48, DE",0.02022
same,UL34 (P16812) protein level,"timepoint 48, DE",0.07906
same,UL35 (P16766) protein level,"timepoint 48, DE",0.007792
same,UL38 (P16779) protein level,"timepoint 48, DE",0.8139
same,UL44 (P16790) protein level,"timepoint 48, DE",0.08914
same,UL48 (P16785) protein level,"timepoint 48, DE",0.03443
same,UL54 (P08546) protein level,"timepoint 48, DE",0.7178
same,UL71 (P16823) protein level,"timepoint 48, DE",0.3459
same,UL78 (P16751) protein level,"timepoint 48, DE",0.7134
same,UL84 (P16727) protein level,"timepoint 48, DE",0.07575
same,UL95 (P16801) protein level,"timepoint 48, DE",0.1437
same,UL96 (P16787) protein level,"timepoint 48, DE",0.2583
same,UL97 (P16788) protein level,"timepoint 48, DE",0.1726
same,UL98 (P16789) protein level,"timepoint 48, DE",0.3796
